Assay results published in patent US6706663B2, “Herbicidal 3-heterocyclic substituted benzisothiazole and benzisoxazole compounds” (Wyeth, priority 2000, dated 2004).

Assays:
GALAP (Galium aparine) [1] = test: Postemergence herbicidal evaluation; format: in vivo
Procedure, shortened: (§1)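 Visual 0–9 injury scores versus control plants, covering stand, vigour, malformation, size, chlorosis and general appearance, taken four to five weeks post-spray and averaged over replicate tests. Plants were sprayed at roughly two weeks old and held on greenhouse benches.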

SETVI (Setaria viridis) [2] = test: Postemergence herbicidal evaluation; format: in vivo, (L.) Beau
Procedure, shortened: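 First, seedlings are raised in flats for about two weeks. Next, compound dispersed in 50/50 acetone/water with 0.5% TWEEN 20 is sprayed at 40 psi to deliver about 0.0040–1.000 kg/ha. Plants are then maintained in the greenhouse and rated 0-9 after four to five weeks.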

ZEAMX (Corn, Field) = test: Preemergence herbicidal evaluation; format: in vivo, Zea mays, L.; conditions: preemergence, rated 4-5 weeks after treatment
GALAP (Galium aparine) [3] = test: Preemergence herbicidal evaluation; format: in vivo; conditions: preemergence, rated 4-5 weeks after treatment
Procedure, shortened: (§2)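 Preemergence soil spray, aq. acetone; greenhouse; visual 0–9 score vs control at 4–5 wk.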

[4] = tested on: GLXMAW (Soybean, Williams); test: Postemergence herbicidal evaluation; format: in vivo, Glycine max, (L.) Merr. cv Williams
Procedure, shortened: as §1

[5] = tested on: ECHCG (Echinochloa crus-galli); test: Preemergence herbicidal evaluation; format: in vivo, (L.) Beau; conditions: preemergence, rated 4-5 weeks after treatment
Procedure, shortened: as §2

SETVI (Setaria viridis) [6] = test: Preemergence herbicidal evaluation; format: in vivo, (L.) Beau; conditions: preemergence, rated 4-5 weeks after treatment
Procedure, shortened: as §2

[7] = tested on: IPOHE (Ipomoea hederacea); test: Preemergence herbicidal evaluation; format: in vivo, (L.) Jacq.; conditions: preemergence, rated 4-5 weeks after treatment
[8] = tested on: MOOVA (Monochoria vaginalis); test: Flooded paddy, preemergence weed control; format: in vivo, Presl.; conditions: rated 3-4 weeks after treatment, 0-9 rating scale
Procedure, shortened: (§3)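 Visual 0–9 ratings versus controls scored stand, vigor, malformation, size, chlorosis and overall appearance. Plants grew from seeds or propagating organs sown 0.5 cm deep in silt loam, with water held 1.5–3 cm above the soil for the whole test under greenhouse care.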

CYPIR (Cyperus iria) = test: Flooded paddy, preemergence weed control; format: in vivo; conditions: rated 3-4 weeks after treatment, 0-9 rating scale
Procedure, shortened: as §3

[9] = tested on: GLXMAW (Soybean, Williams); test: Preemergence herbicidal evaluation; format: in vivo, Glycine max, (L.) Merr. cv Williams; conditions: preemergence, rated 4-5 weeks after treatment

| Compound | Postemergence herbicidal rating, GALAP (GALAP (Galium aparine) [1]; rate 0.0320 kg/ha) | Postemergence herbicidal rating, GALAP (GALAP (Galium aparine) [1]; rate 0.0620 kg/ha) | Postemergence herbicidal rating, SETVI (SETVI (Setaria viridis) [2]; rate 0.0320 kg/ha) | Postemergence herbicidal rating, SETVI (SETVI (Setaria viridis) [2]; rate 0.0620 kg/ha) | ZEAMX preemergence herbicidal rating (ZEAMX (Corn, Field); Rate 0.0620 kg/ha) | ZEAMX preemergence herbicidal rating (ZEAMX (Corn, Field); Rate 0.1250 kg/ha) | ZEAMX preemergence herbicidal rating (ZEAMX (Corn, Field); Rate 0.2500 kg/ha) | GALAP preemergence herbicidal rating (GALAP (Galium aparine) [3]; Rate 0.0620 kg/ha) | GALAP preemergence herbicidal rating (GALAP (Galium aparine) [3]; Rate 0.1250 kg/ha) | Postemergence herbicidal rating, GLXMAW ([4]; rate 0.0320 kg/ha) | Postemergence herbicidal rating, GLXMAW ([4]; rate 0.0620 kg/ha) | ECHCG preemergence herbicidal rating ([5]; Rate 0.0620 kg/ha) | ECHCG preemergence herbicidal rating ([5]; Rate 0.1250 kg/ha) | ECHCG preemergence herbicidal rating ([5]; Rate 0.2500 kg/ha) | SETVI preemergence herbicidal rating (SETVI (Setaria viridis) [6]; Rate 0.0620 kg/ha) | SETVI preemergence herbicidal rating (SETVI (Setaria viridis) [6]; Rate 0.1250 kg/ha) | SETVI preemergence herbicidal rating (SETVI (Setaria viridis) [6]; Rate 0.2500 kg/ha) | IPOHE preemergence herbicidal rating ([7]; Rate 0.0620 kg/ha) | IPOHE preemergence herbicidal rating ([7]; Rate 0.1250 kg/ha) | IPOHE preemergence herbicidal rating ([7]; Rate 0.2500 kg/ha) | other results |
| --- | --- | --- | --- | --- | --- | --- | --- | --- | --- | --- | --- | --- | --- | --- | --- | --- | --- | --- | --- | --- | --- |
| CN(C(=O)c1nsc2ccc(-n3c(=O)cc(C(F)(F)F)n(C)c3=O)cc12)c1ccc(Cl)cc1 [Compound 18, 1,2-benzisothiazole-3-carboxanilide, 4′-chloro-5-[3,6-dihydro-3-methyl-2,6-dioxo-4-(trifluoromethyl)-1(2H)-pyrimidinyl]-N-methyl-] | 2.0 | 4.0 | 0.0 | 0.0 | 7.0 | 8.0 | 8.0 | 0.0 | 0.0 | 6.0 | 8.0 | 0.0 | 2.0 | 9.0 | 8.0 | 9.0 | 9.0 | 3.0 | 9.0 | 9.0 | Postemergence herbicidal rating, GALAP (GALAP (Galium aparine) [1]; rate 0.1250 kg/ha): 6.0; Postemergence herbicidal rating, GALAP (GALAP (Galium aparine) [1]; rate 0.2500 kg/ha): 9.0; Postemergence herbicidal rating, SETVI (SETVI (Setaria viridis) [2]; rate 0.1250 kg/ha): 5.0; Postemergence herbicidal rating, SETVI (SETVI (Setaria viridis) [2]; rate 0.2500 kg/ha): 9.0; GALAP preemergence herbicidal rating (GALAP (Galium aparine) [3]; Rate 0.2500 kg/ha): 9.0; Postemergence herbicidal rating, GLXMAW ([4]; rate 0.1250 kg/ha): 8.0; Postemergence herbicidal rating, GLXMAW ([4]; rate 0.2500 kg/ha): 8.5; herbicidal rating, MOOVA ([8]; rate 0.0080 kg/ha): 0.0; herbicidal rating, MOOVA ([8]; rate 0.0320 kg/ha): 9.0; herbicidal rating, MOOVA ([8]; rate 0.1250 kg/ha): 9.0; herbicidal rating, CYPIR (CYPIR (Cyperus iria); rate 0.0080 kg/ha): 0.0; herbicidal rating, CYPIR (CYPIR (Cyperus iria); rate 0.0320 kg/ha): 6.5; herbicidal rating, CYPIR (CYPIR (Cyperus iria); rate 0.1250 kg/ha): 7.5; GLXMAW preemergence herbicidal rating ([9]; Rate 0.0620 kg/ha): 0.0; GLXMAW preemergence herbicidal rating ([9]; Rate 0.1250 kg/ha): 4.0; GLXMAW preemergence herbicidal rating ([9]; Rate 0.2500 kg/ha): 5.0 |
| Cc1cccnc1-c1nsc2ccc(-n3c(=O)cc(C(F)(F)F)n(C)c3=O)cc12 [Compound 19, 1-methyl-3-[3-(3-methyl-2-pyridyl)-1,2-benzisothiazol-5-yl]-6-(trifluoromethyl)uracil] | 3.5 | 6.0 | 4.0 | 6.5 | 7.0 | 7.0 | 7.7 | 0.5 | 6.0 | 8.3 | 8.0 | 9.0 | 9.0 | 9.0 | 9.0 | 9.0 | 9.0 | 9.0 | 8.7 | 9.0 | GALAP preemergence herbicidal rating (GALAP (Galium aparine) [3]; Rate 0.2500 kg/ha): 9.0; herbicidal rating, MOOVA ([8]; rate 0.0080 kg/ha): 4.0; herbicidal rating, MOOVA ([8]; rate 0.0320 kg/ha): 9.0; herbicidal rating, MOOVA ([8]; rate 0.1250 kg/ha): 9.0; herbicidal rating, CYPIR (CYPIR (Cyperus iria); rate 0.0080 kg/ha): 0.0; herbicidal rating, CYPIR (CYPIR (Cyperus iria); rate 0.0320 kg/ha): 5.0; herbicidal rating, CYPIR (CYPIR (Cyperus iria); rate 0.1250 kg/ha): 9.0; GLXMAW preemergence herbicidal rating ([9]; Rate 0.0620 kg/ha): 6.3; GLXMAW preemergence herbicidal rating ([9]; Rate 0.1250 kg/ha): 6.7; GLXMAW preemergence herbicidal rating ([9]; Rate 0.2500 kg/ha): 7.7 |
| Cc1ccc(-c2nsc3ccc(N4C(=O)C5=C(CCCC5)C4=O)cc23)s1 [Compound 20, N-[3-(5-methyl-2-thienyl)-1,2-benzisothiazol-5-yl]-1-cyclohexene-1,2-dicarboximide] | 1.0 | 1.0 | 2.0 | 2.0 | 0.0 | 0.0 | 0.0 | 0.0 | 0.0 | 5.5 | 5.5 | 0.0 | 0.0 | 0.0 | 0.0 | 0.0 | 0.0 | 0.0 | 0.0 | 0.0 | Postemergence herbicidal rating, GALAP (GALAP (Galium aparine) [1]; rate 0.1250 kg/ha): 1.0; Postemergence herbicidal rating, SETVI (SETVI (Setaria viridis) [2]; rate 0.1250 kg/ha): 2.0; GALAP preemergence herbicidal rating (GALAP (Galium aparine) [3]; Rate 0.2500 kg/ha): 3.0; Postemergence herbicidal rating, GLXMAW ([4]; rate 0.1250 kg/ha): 5.5; herbicidal rating, MOOVA ([8]; rate 0.0320 kg/ha): 9.0; herbicidal rating, MOOVA ([8]; rate 0.1250 kg/ha): 9.0; herbicidal rating, CYPIR (CYPIR (Cyperus iria); rate 0.0320 kg/ha): 2.0; herbicidal rating, CYPIR (CYPIR (Cyperus iria); rate 0.1250 kg/ha): 3.0; GLXMAW preemergence herbicidal rating ([9]; Rate 0.0620 kg/ha): 0.0; GLXMAW preemergence herbicidal rating ([9]; Rate 0.1250 kg/ha): 0.0; GLXMAW preemergence herbicidal rating ([9]; Rate 0.2500 kg/ha): 0.0 |
| COC(=O)C(C)Oc1ccsc1-c1nsc2ccc(-n3c(=O)cc(C(F)(F)F)n(C)c3=O)cc12 (centres unmarked) [Compound 23, methyl 2-[(2-[5-[3,6-dihydro-3-methyl-2,6-dioxo-4-(trifluoromethyl)-1(2H)-pyrimidinyl]-1,2-benzisothiazol-3-yl]-3-thienyl]oxy]propionate] | 1.0 | 2.0 | 1.0 | 1.0 | 0.0 | 0.0 | 0.0 | 0.0 | 0.0 | 4.0 | 5.0 | 0.0 | 0.0 | 1.0 | 0.0 | 0.0 | 1.0 | 0.0 | 0.0 | 0.0 | Postemergence herbicidal rating, GALAP (GALAP (Galium aparine) [1]; rate 0.1250 kg/ha): 2.0; Postemergence herbicidal rating, SETVI (SETVI (Setaria viridis) [2]; rate 0.1250 kg/ha): 7.0; GALAP preemergence herbicidal rating (GALAP (Galium aparine) [3]; Rate 0.2500 kg/ha): 1.0; Postemergence herbicidal rating, GLXMAW ([4]; rate 0.1250 kg/ha): 5.0; herbicidal rating, MOOVA ([8]; rate 0.0320 kg/ha): 9.0; herbicidal rating, MOOVA ([8]; rate 0.1250 kg/ha): 9.0; herbicidal rating, CYPIR (CYPIR (Cyperus iria); rate 0.0320 kg/ha): 9.0; herbicidal rating, CYPIR (CYPIR (Cyperus iria); rate 0.1250 kg/ha): 9.0; GLXMAW preemergence herbicidal rating ([9]; Rate 0.0620 kg/ha): 0.0; GLXMAW preemergence herbicidal rating ([9]; Rate 0.1250 kg/ha): 0.0; GLXMAW preemergence herbicidal rating ([9]; Rate 0.2500 kg/ha): 0.0 |
| Cn1c(C(F)(F)F)cc(=O)n(-c2ccc3snc(C4SCCS4)c3c2)c1=O [Compound 24, 3-[3-(1,3-dithiolan-2-yl)-1,2-benzisothiazol-5-yl]-1-methyl-6-(trifluoromethyl)uracil] | 3.0 | 4.0 | 0.0 | 3.0 | 0.0 | 1.0 | 3.0 | 5.0 | 5.0 | 8.0 | 8.5 | 0.0 | 1.5 | 5.0 | 3.5 | 8.0 | 9.0 | 2.0 | 6.5 | 7.0 | herbicidal rating, MOOVA ([8]; rate 0.0320 kg/ha): 5.0; herbicidal rating, MOOVA ([8]; rate 0.1250 kg/ha): 8.0; herbicidal rating, CYPIR (CYPIR (Cyperus iria); rate 0.0320 kg/ha): 0.0; herbicidal rating, CYPIR (CYPIR (Cyperus iria); rate 0.1250 kg/ha): 5.0; GLXMAW preemergence herbicidal rating ([9]; Rate 0.0620 kg/ha): 2.0; GLXMAW preemergence herbicidal rating ([9]; Rate 0.1250 kg/ha): 2.5; GLXMAW preemergence herbicidal rating ([9]; Rate 0.2500 kg/ha): 4.0 |
